Results reported in US7071231B2, “Naphthalene ureas as glucose uptake enhancers” (Telik, Inc., priority 1999, dated 2006).
Where two headings read alike, the source gives them in different places.

Tested on: 3T3 L1 fibroblasts
Test: Glucose transport activity assay (14C-2-deoxy-D-glucose uptake)
Assay type: cell-based
Conditions: EC (effective concentration) for increase in glucose transport, 14C-2-deoxy-D-glucose, 3T3 L1 cells, read-out: Concentration (μM) to reach >150% activity of vehicle control
Method: Glucose Transport Activity Assay.
Stimulation of the insulin receptor leads to the transport of glucose from the blood into cells, thus modulating blood glucose levels. 3T3 L1 fibroblasts (ATCC) were grown in Dulbecco's modified Eagle's medium (DMEM) with 10% fetal bovine serum (FBS). The cells were plated at a density of 3×10^4 cells/well in 24-well plates. Two days after confluence was reached, the cells were treated for 3 days with 0.5 mM isobutylmethylxanthine (IBMX), 1 μM dexamethasone, and 1.7 μM insulin. The cells were then transferred to DMEM with 10% FBS and supplemented with 1.7μM insulin for 2 more days. The cells were maintained in DMEM with 10% FBS for an additional 4 days. Finally the cells were serum-starved overnight in 0.1% bovine serum albumin (BSA) in DMEM.
The following day, the medium was replaced with 150 mM NaCl, 1.7 mM KCl, 0.9 mM CaCl2, K2HPO4 (pH 7.4) to which were added either the experimental compounds or their vehicle (DMSO). Insulin or its vehicle (0.01% BSA) was diluted in the assay buffer (containing test compound or vehicle, respectively) to final concentration of […]. After incubation for 30 min at 37° C., 5 μCi/ml ^14C-2-deoxy-D-glucose was added, and the incubation was continued for additional 30 min at 37° C. The cells were then washed 3 times with ice-cold PBS/20 mM glucose and lysed in 250 μl of lysis buffer (50 mM HEPES pH 7.6, 1% Triton X-100) for 30 min at room temperature. Radioactivity in the lysate was quantified by scintillation counting.
Once ^14C-2-deoxy-D-glucose is transported into the cell, it is not released. Glucose transport is, therefore, proportional to the amount of radioactivity in the lysate. The concentration of compound necessary to produce an increase in glucose transport to greater than 150% of the vehicle control (generally representing the sum of the standard deviation of the vehicle control plus the largest standard deviation of a test sample) was recorded as the EC (effective concentration). Shown in FIG. 3 is glucose uptake by cells at various concentrations when treated with Compound 13 and Compound 15.

Compound	EC (150% of vehicle control) [µM]	EC (150% of vehicle control) (Mus musculus) [µM]
5-({[7-({[(7-{[(3-carboxy-4-chlorophenyl)amino]sulfonyl}(2-naphthyl))amino]iminomethyl}amino)(2-naphthyl)]sulfonyl}amino)-2-chlorobenzoic acid [Compound 160]	3.2	–
5-[({7-[3-(7-{[(3-carboxy-4-hydroxyphenyl)amino]sulfonyl}(2-naphthyl))-2-oxoimidazolidinyl](2-naphthyl)}sulfonyl)amino]-2-hydroxybenzoic acid [Compound 122]	32	–
O=C(Nc1ccc2ccc(S(=O)(=O)O)cc2c1)Nc1ccc2ccc(S(=O)(=O)Nc3ccc(S(=O)(=O)O)cc3)cc2c1 [Compound 20, 7-{[(7-{[(4-sulfophenyl)amino]sulfonyl}-2-naphthyl)amino]carbonylamino}naphthalene-2-sulfonic acid]	–	3.2
O=C(Nc1ccc2ccc(S(=O)(=O)Nc3ccc(S(=O)(=O)O)cc3)cc2c1)Nc1ccc2ccc(S(=O)(=O)Nc3ccc(S(=O)(=O)O)cc3)cc2c1 [Compound 22, 4{[(7-{[N-(7-{[(4-sulfophenyl)amino]sulfonyl}-2-naphthyl)carbamoyl]amino}-2-naphthyl)sulfonyl]amino}benzenesulfonic acid]	–	3.2
O=C(Nc1ccc2ccc(S(=O)(=O)Nc3ccc(C(=O)O)cc3)cc2c1)Nc1ccc2ccc(S(=O)(=O)Nc3ccc(C(=O)O)cc3)cc2c1 [Compound 25, 4-{[(7-{[N-(7-{[(4-carboxyphenyl)amino]sulfonyl}-2-naphthyl)carbamoyl]amino}-2-naphthyl)sulfonyl]amino}benzoic acid]	–	3.2
O=C(Nc1ccc2ccc(S(=O)(=O)O)cc2c1)Nc1ccc2ccc(S(=O)(=O)Nc3cccc(C(=O)O)c3O)cc2c1 [Compound 30, 2-hydroxy-3-{[(7-{[N-(7-sulfo(2-naphthyl))carbamoyl]amino}(2-naphthyl))sulfonyl]amino}benzoic acid]	–	3.2
O=C(Nc1ccc2ccc(S(=O)(=O)Nc3cccc(C(=O)O)c3O)cc2c1)Nc1ccc2ccc(S(=O)(=O)Nc3cccc(C(=O)O)c3O)cc2c1 [Compound 31, 3-{[(7-{[N-(7-{[(3-carboxy-2-hydroxyphenyl)amino]sulfonyl}(2-naphthyl))carbamoyl]amino}(2-naphthyl))sulfonyl]amino}-2-hydroxybenzoic acid]	–	3.2
O=C(Nc1ccc2ccc(S(=O)(=O)O)cc2c1)Nc1ccc2ccc(S(=O)(=O)Nc3ccc(O)c(C(=O)O)c3)cc2c1 [Compound 32, 2-hydroxy-5-{[(7-{[N-(7-sulfo(2-naphthyl))carbamoyl]amino}(2-naphthyl))sulfonyl]amino}benzoic acid]	–	32
O=C(Nc1ccc2ccc(S(=O)(=O)Nc3ccc(O)c(C(=O)O)c3)cc2c1)Nc1ccc2ccc(S(=O)(=O)Nc3ccc(O)c(C(=O)O)c3)cc2c1 [Compound 33, 5-{[(7-{[N-(7-{[(3-carboxy-4-hydroxyphenyl)amino]sulfonyl}(2-naphthyl))carbamoyl]amino}(2-naphthyl))sulfonyl]amino}-2-hydroxybenzoic acid]	–	3.2
O=C(Nc1ccc2ccc(S(=O)(=O)O)cc2c1)Nc1ccc2ccc(S(=O)(=O)Nc3ccc(C(=O)O)c(O)c3)cc2c1 [Compound 34, 2-hydroxy-4-{[(7-{[N-(7-sulfo(2-naphthyl))carbamoyl]amino}(2-naphthyl))sulfonyl]amino}benzoic acid]	–	> 32
O=C(Nc1ccc2ccc(S(=O)(=O)Nc3ccc(C(=O)O)c(O)c3)cc2c1)Nc1ccc2ccc(S(=O)(=O)Nc3ccc(C(=O)O)c(O)c3)cc2c1 [Compound 35, 4-{[(7-{[N-(7-{[(4-carboxy-3-hydroxyphenyl)amino]sulfonyl}(2-naphthyl))carbamoyl]amino}(2-naphthyl))sulfonyl]amino}-2-hydroxybenzoic acid]	–	32
